Reference: patent publication US20050019426A1, “Use of an aqueous or hydroalcoholic extract from bauhinia for the preparation of a composition” (priority 2003, published 2005)
Values joined by “and” are separate entries in the source; they are usually repeats but may differ in a detail not shown here. Equal values may be shown once.

Test system: non-enzymatic incorporation of glucose into proteins (glycation) in human dermal fibroblasts (NDHF Pool PF2)
Experiment: Non-enzymatic incorporation of glucose into proteins (glycation) in fibroblasts (Example 5)
Assay type: cell-based
Conditions: 1 mg/ml, 15 days
Protocol: Material: • human dermal fibroblasts (NDHF Pool PF2) • culture medium: DMEM, 2 mM glutamine, 50 Ul/ml of penicillin, 50 μg/ml of streptomycin, 10% foetal calf serum (Life Technologies) • dry extract of Bauhinia forficata according to Example 4 (aqueous extraction), dissolved in sterile PBS • final concentrations tested: 0.3 mg/ml, 0.1 mg/ml, 0.03 mg/ml • reference: aminoguanidine 1 mg/ml
Human dermal fibroblasts are cultivated to confluence in cell culture medium (see above) in 25 cm^2 plates at 37° C. and 5% CO2. Collagen synthesis is stimulated by cultivation of the cells in the presence of vitamin C (final concentration: 20 μg/ml) for 96 hours. The cells are washed with PBS and lysed by serial freezing/thawing. The cells are treated with aqueous extract of Bauhinia forficata or aminoguanidine (and control: PBS) and labelled with 20 μCi/ml D-[5-^3H]-glucose (19 Ci/mmol), 703 Gbq/mmol) in the presence of 0.1 mg/ml of glucose. The treatment and labelling are carried out without interruption for 15 days at 37° C. and 5% CO2. At the end of the incubation, proteins of the extracellular matrix (principally collagen) are extracted by buffer (TRIS 50 mM, 4M guanidine, 5 mM EDTA, pH 8.0, 30 min). The total protein is precipitated by 20% (v/v) trichloroacetic acid, 0.66 mg/ml of albumin. The precipitates are recovered by filtration from a Skatron collector and washed copiously, firstly in 3% trichloroacetic acid, then with 70% ethanol. The glucose covalently bonded to the fibres of the extracellular matrix is finally measured by scintillation.

N=C(N)NN [Aminoguanidine, aminoguanidine]
reduction of glucose incorporation: 85%
Mean cpm (n=3): 3701 cpm
cpm (glucose incorporated into proteins) (single replicates): 2859 cpm and 3434 cpm and 4809 cpm
activity at 1000 µg/mL (Homo sapiens, Fibroblast, 360 h, read-out: % of control (glucose incorporation)): 15%
